Results on 27 molecules are retold here after patent US20250195521A1 (Revolution Medicines, Inc., priority 2020, published 2025).

Where only a bound is given, the exact number is not on record here.

The test system of the first assay is NCI-H358 (K-Ras G12C). In words: CellTiter-Glo cell viability assay, NCI-H358. The class given is cell-based, human. As to conditions: Homo sapiens, NCI-H358, 120 h, 5-day treatment; read-out: H358 Cell Viability assay data (K-Ras G12C, IC50). How it is done: Determination of Cell Viability in RAS Mutant Cancer Cell Lines Protocol: CellTiter-Glo® Cell Viability Assay
Note—The following protocol describes a procedure for monitoring cell viability of K-Ras mutant cancer cell lines in response to a compound of the invention. Other RAS isoforms may be employed, though the number of cells to be seeded will vary based on cell line used.
Test compounds (132.5 nL) were directly dispensed into the assay plates containing cells. […] On day 5, assay plates and their contents were equilibrated to room temperature for approximately 30 minutes. […] Luminescence was measured using the PerkinElmer Enspire. Data were normalized by the following: (Sample signal/Avg. DMSO)*100. The data were fit using a four-parameter logistic fit.
Broadly, the IC50 is the point on the concentration scale where inhibition reaches its midpoint. For the molecule `CCn1c(-c2cccnc2[C@H](C)OC)c2c3cc(ccc31)-c1cc(O)cc(c1)C[C@H](NC(=O)[C@H](C(C)C)N(C)C(=O)[C@H]1CCN(C(=O)C#CCN3CCOCC3)C1)C(=O)N1CCC[C@H](N1)C(=O)OCC(C)(C)C2` [Compound A182], the IC50 was under 0.01 µM. For the molecule `COCc1ncccc1-c1nc2ccc3cc2n1CC(C)(C)COC(=O)[C@@H]1CCCN(N1)C(=O)[C@@H](NC(=O)[C@H](C(C)C)N(C)C(=O)[C@H]1CCN(C(=O)C#CCN2CCOCC2)C1)Cc1cc(O)cc-3c1` [Compound A188], the IC50 is over 10 µM. Take `CCn1c(-c2cccnc2COC)c2c3cc(ccc31)-c1cc(O)cc(c1)C[C@H](NC(=O)[C@H](C(C)C)N(C)C(=O)[C@H]1CCN(C(=O)C#CCN3CCN(C)CC3)C1)C(=O)N1CCC[C@H](N1)C(=O)OCC(C)(C)C2` [Compound A189]: the IC50 was over 10 µM. Take `CCn1c(-c2cncnc2)c2c3cc(ccc31)-c1cccc(c1)[C@@H](OC)[C@H](NC(=O)[C@H](C(C)C)N(C)C(=O)[C@H]1CCN(C(=O)C#CCN3CCOCC3)C1)C(=O)N1CCC[C@H](N1)C(=O)OCC(C)(C)C2` [Compound A208]: the IC50 was over 10 µM. Same read-out and setting: the result for `CCn1c(-c2ccccc2CN(C)C)c2c3cc(ccc31)-c1cc(O)cc(c1)C[C@H](NC(=O)[C@H](C(C)C)N(C)Cc1ccc(NC(=O)/C=C/CN(C)C)cn1)C(=O)N1CCC[C@H](N1)C(=O)OCC(C)(C)C2` [Compound A213] reads over 10 µM. `CCn1c(-c2ccccc2CCOC)c2c3cc(ccc31)-c1cc(O)cc(c1)C[C@H](NC(=O)[C@H](C(C)C)N(C)C(=O)c1ccc(NC(=O)/C=C/CN(C)C)nc1)C(=O)N1CCC[C@H](N1)C(=O)OCC(C)(C)C2` [Compound A218]: the 50% inhibitory concentration (IC50) was over 10 µM. Regarding `CCn1c(-c2ccccc2CCOC)c2c3cc(ccc31)-c1cc(O)cc(c1)C[C@H](NC(=O)[C@H](C(C)C)N(C)C(=O)c1ccc(NC(=O)/C=C/CN(C)C)cn1)C(=O)N1CCC[C@H](N1)C(=O)OCC(C)(C)C2` [Compound A224], the IC50 was over 10 µM.

For `C=CC(=O)N1CC[C@H](C(=O)Nc2ccccc2C(=O)N[C@H]2Cc3cc(O)cc(c3)-c3ccc4c(c3)c(c(-c3cnccc3COC)n4CC)CC(C)(C)COC(=O)[C@@H]3CCCN(N3)C2=O)C1` [Compound A229], the IC50 is over 10 µM. The same measure, in the same setting: the result for `C=CC(=O)N1CC[C@H](C(=O)N(C)[C@H](C(=O)N(C)[C@H]2Cc3cc(O)cc(c3)-c3ccc4c(c3)c(c(-c3cccnc3COC)n4CC)CC(C)(C)COC(=O)[C@@H]3CCCN(N3)C2=O)C(C)C)C1` [Compound A230] reads over 10 µM; that for `C=CC(=O)N1CC[C@H](C(=O)N(C)[C@H](C(=O)N[C@H]2Cc3cc(OC4O[C@H](CO)[C@@H](O)[C@H](O)[C@H]4O)cc(c3)-c3ccc4c(c3)c(c(-c3cccnc3COC)n4CC)CC(C)(C)COC(=O)[C@@H]3CCCN(N3)C2=O)C(C)C)C1` (stereo partly drawn) [Compound A234], over 10 µM. As for `C=CC(=O)N1CC[C@H](C(=O)N(C)[C@H](C(=O)N[C@H]2CN(C)C(=O)Cc3ccc4c(c3)c(c(-c3cccnc3COC)n4CC)CC(C)(C)COC(=O)[C@@H]3CCCN(N3)C2=O)C(C)C)C1` [Compound A239], the IC50 is over 10 µM. For the molecule `C=CC(=O)N1CC[C@H](C(=O)N(C)[C@H](C(=O)N[C@H]2C[C@H]3CN(CCO3)c3ccc4c(c3)c(c(-c3cccnc3COC)n4CC)CC(C)(C)COC(=O)[C@@H]3CCCN(N3)C2=O)C(C)C)C1` [Compound A240], the IC50 was over 10 µM. Still for that read-out and setting: the result for `C=CC(=O)N1CC[C@H](C(=O)N(C)[C@H](C(=O)N[C@H]2Cc3cc(O)cc(c3)-c3ccc4nc(-c5cccnc5[C@H](C)OC)n(c4c3)CC(C)(C)COC(=O)[C@@H]3CCCN(N3)C2=O)C(C)C)C1` [Compound A242] reads over 10 µM. With `C=CC(=O)N1CC[C@H](C(=O)N(C)[C@H](C(=O)N[C@H]2Cc3cc(O)cc(c3)-c3ccc4nc(-c5cccnc5COC)c(n4c3)CC(C)(C)COC(=O)[C@@H]3CCCN(N3)C2=O)C(C)C)C1` [Compound A243], the IC50 is over 10 µM. The same measure, in the same setting: the result for `CCn1c(-c2cccnc2[C@H](C)OC)c2c3cc(ccc31)-c1cc(O)cc(c1)C[C@H](NC(=O)[C@H](C(C)C)N(C)C(=O)[C@H]1CCN(C(=O)C#C[C@@H]3CCCN3C)C1)C(=O)N1CCC[C@H](N1)C(=O)OCC(C)(C)C2` [Compound A247] reads under 0.01 µM; that for `C=CC(=O)N1CC[C@H](C(=O)N(C)[C@H](C(=O)N[C@H]2CC3=NN=C(S3)c3ccc4c(c3)c(c(-c3cccnc3[C@H](C)OC)n4CC)CC(C)(C)COC(=O)[C@@H]3CCCN(N3)C2=O)C(C)C)C1` [Compound A248], over 10 µM.

For the molecule `C=CC(=O)Nc1ccc(C(=O)N(C)[C@H](C(=O)N[C@H]2Cc3cc(O)cc(c3)-c3ccc4c(c3)c(c(-c3cccnc3[C@H](C)OC)n4CC)CC(C)(C)COC(=O)[C@@H]3CCCN(N3)C2=O)C(C)C)cn1` [Compound A250], the IC50 was under 0.01 µM. `CCn1c(-c2cccnc2[C@H](C)OC)c2c3cc(ccc31)-c1cc(O)cc(c1)C[C@H](NC(=O)C1CCCC1C(F)F)C(=O)N1CCC[C@H](N1)C(=O)OCC(C)(C)C2` (stereo partly drawn) [Compound A254]: the IC50 lay within 0.1 to 1 µM. As for `C=CC(=O)N1CC[C@H](C(=O)N(C)[C@H](C(=O)N[C@@H]2C(=O)N3CCC[C@H](N3)C(=O)OCC(C)(C)Cc3c(-c4cncnc4)n(CC)c4ccc(cc34)-c3cccc(c3)[C@H]2O)C(C)C)C1` [Compound A272], the IC50 is over 10 µM. Same read-out and setting: the result for `C=CC(=O)N1CC[C@H](C(=O)N(C)[C@H](C(=O)N[C@@H]2C(=O)N3CCC[C@H](N3)C(=O)OCC(C)(C)Cc3c(-c4cncnc4)n(CC)c4ccc(cc34)-c3cccc(c3)[C@H]2OC)C(C)C)C1` [Compound A273] reads over 10 µM. On the same count and under the same terms, the result for `C=CC(=O)N1CC[C@H](C(=O)N(C)[C@H](C(=O)N[C@H]2Cc3ncc(n3C)-c3ccc4c(c3)c(c(-c3cccnc3[C@H](C)OC)n4CC)CC(C)(C)COC(=O)[C@@H]3CCCN(N3)C2=O)C(C)C)C1` [Compound A276] reads over 10 µM. Take `C=CC(=O)N1CC[C@H](C(=O)N(C)[C@H](C(=O)N[C@H]2Cc3cc(O)cc(c3)-c3ccc4c(c3)c(c(-c3cccnc3[C@@H]3CCCO3)n4CC)CC(C)(C)COC(=O)[C@@H]3CCCN(N3)C2=O)C(C)C)C1` [Compound A281]: the half-maximal inhibitory concentration (IC50) is under 0.01 µM.

In the case of `C=CC(=O)N1CC[C@H](C(=O)N(C)[C@H](C(=O)N[C@H]2Cc3nc(ns3)-c3ccc4c(c3)c(c(-c3cncnc3)n4CC)CC(C)(C)COC(=O)[C@@H]3CCCN(N3)C2=O)C(C)C)C1` [Compound A285], the IC50 is over 10 µM.

With `C=CC(=O)N1CC[C@H](C(=O)N(C)[C@H](C(=O)N[C@H]2Cc3nc(cs3)-c3ccc4c(c3)c(c(-c3cccnc3[C@H](C)OC)n4CC)CC(C)(C)CN(C)C[C@@H]3CCCN(N3)C2=O)C(C)C)C1` [Compound A287], the IC50 is over 10 µM. As for `C=CC(=O)N1CC[C@H](C(=O)N(C)[C@H](C(=O)N[C@H]2Cc3nc(cs3)-c3ccc4c(c3)c(c(-c3cccnc3[C@H](C)OC)n4CC)CC(C)(C)CCC[C@@H]3CCCN(N3)C2=O)C(C)C)C1` [Compound A288], the IC50 was over 10 µM.

The assay is the same for the next values; noted with them: Homo sapiens, NCI-H358, 120 h, read-out: H358 Cell Viability assay data (K-Ras G12C, IC50, uM), 5-day treatment.
Take `CCn1c(-c2cccnc2[C@H](C)OC)c2c3cc(ccc31)-c1csc(n1)C[C@H](NC(=O)[C@H](C(C)C)N(C)C(=O)N1CC3CC(C1)N3C)C(=O)N1CCC[C@H](N1)C(=O)OCC(C)(C)C2` [Compound A284]: the half-maximal inhibitory concentration (IC50) was 0.1 to 1 µM.

Still in this assay, the particulars now being: read-out: H358 Cell Viability assay data (K-Ras G12C, IC50); 5-day treatment.
`CC#CC(=O)N1CC[C@H](C(=O)N(C)[C@@H](C(=O)N[C@H]2Cc3cc(O)cc(c3)-c3ccc4c(c3)c(c(-c3cccnc3[C@H](C)OC)n4CC)CC(C)(C)COC(=O)[C@@H]3CCCN(N3)C2=O)C(C)C)C1` [Compound A198]: the half-maximal inhibitory concentration (IC50) is over 10 µM.
